Data: patent US11351194B2, “Method for proliferating neural progenitor cells and composition for treating neurological diseases containing proliferated neural progenitor cells” (COLLEGE OF MEDICINE POCHON CHA UNIVERSITY INDUSTRY-ACADEMIC …, priority 2014, dated 2022)

Legend:
[1] = tested on: fetal neural progenitor cells; experiment: Cytometry (cell number); settings: 1 μg/ml, 7 days; compared to general condition; Ps<0.0001; FIG. 2B
Description: The resulting fetal neural progenitor cells were compared with those cultured under a general culture condition. Regarding the general culture condition, 20 ng/ml of each of bFGF and EGF and an α-supplement (2.5 mg insulin, 25 mg transferrin, 0.03 μM sodium selenite, 36.5 mg L-glutamine, and 0.75 g L-glucose) were added to 500 ml of a mixed medium of DMEM/F12 (1:1) containing 0.5 ml of Primocin, which is an antibiotic formulation, and then, the fetal neural progenitor cells were cultured therein (M1), or under a condition in which the B27 supplement was further added (M2).
The fetal neural progenitor cells were seeded on a 6-well plate at a density of 2×10^5 cells/well, cultured for 7 days, and then subjected to cytometry.

[2] = tested on: fetal neural progenitor cells; experiment: Immunocytochemistry analysis using GFAP, Tuj1 and DAPI markers; type: cell-based, human; settings: for expression of Tuj1 / expression of GFAP: in comparison with M1 and M2 (general culture condition); for expression of Tuj1: Ps<0.02, FIG. 4C; for expression of GFAP: Ps<0.04, FIG. 4B; for frequency of expression of both GFAP and Tuj1: FIG. 4D
Description: (§1) 20 ng/ml of each of bFGF and EGF (available from Peprotech, R&D system) and 10 ml of a B27 supplement (available from GIBCO) were added to 500 ml of a mixed medium of DMEM/F12 (1:1) containing 0.5 ml of Primocin, which is an antibiotic formulation, and then, the fetal neural progenitor cells were cultured under a condition in which 1 μg/ml of DL-alpha-tocopherol acetate (M3), 1 μg/ml of (t)-alpha-tocopherol (M4), or a combination thereof (M5) was added. The resulting fetal neural progenitor cells were compared with those cultured under a general culture condition. Regarding the general culture condition, 20 ng/ml of each of bFGF and EGF and an α-supplement (2.5 mg insulin, 25 mg transferrin, 0.03 μM sodium selenite, 36.5 mg L-glutamine, and 0.75 g L-glucose) were added to 500 ml of a mixed medium of DMEM/F12 (1:1) containing 0.5 ml of Primocin, which is an antibiotic formulation, and then, the fetal neural progenitor cells were cultured therein (M1), or under a condition in which the B27 supplement was further added (M2).
The neural progenitor cells were seeded on a 24-well plate at a density of 1×10^5 cells/well, cultured for 7 days, and then, subjected to immunocytochemistry analysis using GFAP, Tuj1, and DAPI markers.

[3] = tested on: fetal neural progenitor cells; experiment: Immunocytochemistry analysis using Ki67, Nestin and DAPI markers; type: cell-based, human; settings: for expression of Ki67: in comparison with M1 and M2 (general culture condition), Ps<0.0001, FIG. 3B; for frequency of expression of both Ki67 and Nestin: in comparison with general culture condition, FIG. 3C
Description: as §1
The fetal neural progenitor cells were seeded on a 24-well plate at a density of 1×10^5 cells/well, cultured for 7 days, and then, subjected to immunocytochemistry analysis using Ki67, Nestin, and DAPI markers.

[4] = tested on: fetal neural progenitor cells; experiment: Cell viability by MTT assay; type: cell-based, human; settings: 7 days
Description: Human neural progenitor cells were isolated from 14 week-old human fetuses. Before obtaining the fetus samples, informed consents that had been sufficiently described to parents in advance were received. In addition, the sample collection and use thereof for research were approved by the Institutional Review Board of the CHA Hospital. Ventral midbrain tissues in the brain of a […] human fetus were isolated according to the method disclosed in Storch et al. 2001; and Milosevic et al. 2006, 2007, and then, dissociated into a single cell suspension by treating the ventral midbrain tissues in a solution containing 0.1 mg/ml of papain and 100 μg/ml of DNase at a temperature of 37° C. for about 30 minutes. The single cell suspension was washed with phosphate buffered saline (PBS), and then, incubated in 50 μg/ml of antipain at a temperature of 37° C. for 30 minutes. The resulting neural progenitor cells were plated, in a monolayer, at a density of 30,000 cells/cm^2, onto a culture dish that was pre-coated with 15 μg/ml of poly-L-omithine and 4 μg/ml of fibronectin, and then, cultured. The cultured fetus neural progenitor cells were seeded on a 96-well plate at a density of 1×10^4 cells/well, cultured for 7 days, and treated with an MTT reagent. Then, by measuring optical density thereof (at a wavelength of 570 nm), the cell viability was analyzed.

[5] = 7 days, in comparison with general culture condition, Ps<0.0001
[6] = 7 days, in comparison with general culture condition, Ps<0.0001, FIG. 4E
[7] = 7 days, printed comparator: cells cultured under normoxia, Ps≤0.0001, FIG. 3D
[8] = 1 μg/ml in medium, in comparison with general culture condition (M1, M2), Ps<0.02, FIG. 1
[9] = hypoxia (oxygen about 0.1% to about 10%) in comparison with normoxia, M3: P<0.009, M4: P<0.01, M5: P<0.001

SMILES	number of fetal neural progenitor cells [1]	expression of Tuj1 ([2]; 7 days)	expression of GFAP ([2]; 7 days)	frequency of expression of both GFAP and Tuj1 [2, 5]	expression of Dapi [2, 6]	expression of Ki67 ([3]; 7 days)	frequency of expression of both Ki67 and Nestin ([3]; 7 days, Ps≤0.0001)	expression of Dapi [3, 7]	cell viability (MTT, optical density 570 nm) [4, 8]	cell viability (MTT, optical density 570 nm) [4, 9]	expression of Dapi ([2]; hypoxia in comparison with normoxia, M4: P<0.006)	expression of Dapi ([3]; hypoxia compared with normoxia, M4 P<0.006, M5 P<0.0001)
CC(=O)Oc1c(C)c(C)c2c(c1C)CCC(C)(CCCC(C)CCCC(C)CCCC(C)C)O2 (racemic) [DL-alpha-tocopherol acetate]	significantly increased number of fetal neural progenitor cells	reduced expression of Tuj1 in a statistically significant manner	reduced expression of GFAP in a statistically significant manner	lower frequency of expression of both GFAP and Tuj1 together	statistically significant increase in expression of Dapi	increased expression of Ki67 of significance	higher frequency of expression of both Ki67 and Nestin together in a statistically significant manner	statistically significant increase in the expression of Dapi	higher cell viability that is statistically significant	higher cell viability that is statistically significant	–	–
Cc1c(C)c2c(c(C)c1O)CC[C@@](C)(CCC[C@H](C)CCC[C@H](C)CCCC(C)C)O2 [alpha-tocopherol, (t)-alpha-tocopherol]	significantly increased number of fetal neural progenitor cells	reduced expression of Tuj1 in a statistically significant manner	reduced expression of GFAP in a statistically significant manner	lower frequency of expression of both GFAP and Tuj1 together	statistically significant increase in expression of Dapi	increased expression of Ki67 of significance	higher frequency of expression of both Ki67 and Nestin together in a statistically significant manner	statistically significant increase in the expression of Dapi	higher cell viability that is statistically significant	higher cell viability that is statistically significant	statistically significant increase in the expression of Dapi	statistically significant increase in the expression of Dapi
